Each structure is given as a SMILES string.

The nature of this data set: Cyclic voltammetry of electrolyte solution. The data set is classed as physicochemical. The note with it: for Number of reaction electrons: reversibly usable electrons. The source says:
For analysis of electrochemical properties of an electrolyte solution, cyclic voltammetry (CV) was used. The cyclic voltammetry is an electrochemical measurement method which is commonly used a lot, and is a method of obtaining a current-potential curve by scanning an electrode potential of a working electrode with a triangular wave at a constant speed. A method of recording a current flowing when potential is changed in proportion to time as a potential-current curve is called a potential sweep method, and when the potential is repeatedly applied, it is called cyclic voltammetry. The cyclic voltammetry allows qualitative understanding of a reaction occurring on an electrode surface such as potential at the reaction occurs, reaction speed, and reactivity of a reaction product, and is widely used in the electrochemical field.
During cyclic voltammetry measurement, a potential scanning speed was applied at 10 to 300 mV/s, and the measurement results are shown in FIGS. 1 to 3.

The mark [1] stands for this setting: 0.01 M in 1 M Na2SO4, glassy carbon working electrode.

In the case of `C[N+](C)(C)CCC[n+]1ccc(-c2cc[n+](-c3cc(O)ccc3O)cc2)cc1` [Example 1], the “Number of reaction electrons” value is listed as 2. Further, under setting [1], the “Negative electrode one-electron reaction potential” value was −0.48 V vs. NHE, the “Negative electrode two-electron reaction potential” value is −0.80 V vs. NHE and the “Positive electrode reaction potential” value stood at 0.46 V vs. NHE. The “Reversibility of second electron (two-electron) reaction in negative electrode area” value (“Reversibility of second electron” below) (cyclic voltammetry curves) is “showed a reversible shape”. Moreover, the “Reversibility in positive electrode area” value (cyclic voltammetry curves, 100 mV s^−1, FIG. 3) is recorded as “reversible behavior was shown”.
Regarding `C[n+]1ccc(-c2cc[n+](C)cc2)cc1.O.[Cl-].[Cl-]` [Comparative Example 1, methyl viologen dichloride hydrate], the “Negative electrode one-electron reaction potential” value under setting [1] is −0.54 V vs. NHE. For the same compound, where the note is “FIG. 1, text”, the “Reduction and oxidation currents, negative electrode area, first electron reaction” value is on record as “around −0.54 V”; the “Reduction and oxidation currents, negative electrode area, second electron reaction” value was around −0.75 V. Also, where the note is “cyclic voltammetry curves”, the “Reversibility of second electron” value is “irreversible”.
As for `C[n+]1ccc(-c2cc[n+](-c3cc(O)ccc3O)cc2)cc1` [Comparative Example 2], the “Number of reaction electrons” value is reported as 1. For the same compound, under setting [1], the “Negative electrode one-electron reaction potential” value is recorded as −0.34 V vs. NHE and the “Positive electrode reaction potential” value is on record as 0.59 V vs. NHE. For the same compound, under “FIG. 1, text”, the “Reduction and oxidation currents, negative electrode area, first electron reaction” value is “around −0.34 V”; the “Reduction and oxidation currents, negative electrode area, second electron reaction” value is around −0.65 V; the “Two-electron reduction and oxidation currents derived from hydroquinone, positive electrode area” value came to 0.59 V. Also, the “Reversibility of second electron” value (cyclic voltammetry curves) is “did not reach a target level”.

These data come from US20240186515A1, “ELECTROLYTE SOLUTION FOR REDOX FLOW BATTERY INCLUDING ORGANIC ACTIVE MATERIAL AND REDOX FLOW BATTERY USING THE SAME” (priority 2022, published 2024).
